Laboratory results taken from patent US20250034168A1, “NITROGEN-CONTAINING HETEROCYCLIC DERIVATIVE PARP INHIBITOR AND USE THEREOF” (XIZANG HAISCO PHARMACEUTICAL CO., LTD., priority 2021, published 2025).
pIC50: −log10 of the molar value.

Tests used:
PARP-1 enzyme = PARP-1 enzyme (Homo sapiens (Human), UniProt P09874); assay: PARP-1 enzyme activity test; format: biochemical
Method: PARP-1 chemical […] detection kit was purchased from BPS Bioscience. The histone solution in the kit was diluted 5× with 1×PBS, and 25 μL of the diluted histone solution was added to a microwell plate and incubated overnight at 4° C. After the incubation, the plate was washed three times with PBST (0.05% Tween-20). 100 μL of the blocking solution was added to the microwell plate and incubated at 25° C. for 90 minutes. After the incubation, the plate was washed three times with PBST. 2.5 μL of compounds at different concentrations diluted in test buffer and 12.5 μL of substrate mixed solution (1.25 μL 10×PARP test buffer; 1.25 μL 10×PARP test mixed solution; 2.5 μL Activated DNA, 7.5 μL double-distilled water) were added to the microwell plate. The PARP-1 enzyme was diluted to 2 ng/μL, 10 μL of the diluent was added to the microwell plate, and the reaction system was incubated at 25° C. for 60 minutes.
After the incubation, the plate was washed three times with PBST. Streptavidin-HRP was diluted 50× with a blocking solution, and 25 μL of the diluent was added to the microwell plate and incubated at 25° C. for 30 minutes. After the incubation, the plate was washed three times with PBST. ELISA ECL substrate A and substrate B were mixed at a ratio of 1:1 (v/v), 50 μL of the mixture was added to the microwell plate, and the chemiluminescence value was read.
The inhibition rate was calculated according to formula 1, where RLUsample was the readout of the compound well, RLUmax was the readout of the solvent control well, and RLUmin was the readout of the control well without the PARP-1 enzyme. Curve fitting was performed by four parameters (log(inhibitor) vs. response—Variable slope) using GraphPad Prism software, and the IC50 value was calculated.

MDA-MB-436 cells = assay: MDA-MB-436 cell activity test; format: cell-based; conditions: Homo sapiens; for pIC50: MDA-MB-436, 168 h, 7 days incubation, CellTiter-Glo; for inhibition at 10 µM: MDA-MB-436 cells, read-out: Max inh. % 10 μM
Method: Breast tumor cells MDA-MB-436 were purchased from ATCC, the culture medium was Leibovitz's L-15+10% FBS, and the cells were cultured in a CO2-free incubator at 37° C. On day 1, the cells in the exponential growth phase were collected, and the cell suspension was adjusted to 4000 cells/135 μL with the culture medium. 135 μL of the cell suspension was added to each well of a 96-well cell culture plate and incubated overnight. On day 2, compounds at different concentrations were added, and the plate was placed in the incubator and incubated for 7 days. After the incubation was completed, according to operation instructions for a CellTiter-Glo kit (Promega, G7573), 75 μL of CTG solution, which was already pre-melted and equilibrated to room temperature, was added to each well, and the mixture was uniformly mixed for 2 min using a microplate shaker. The plate was placed at room temperature for 10 min, and then […] were measured using an Envision2104 plate reader (PerkinElmer). The inhibition rate was calculated using formula (1), where RLUcompound was the readout of the drug treated group, RLUcontrol was the average value of the vehicle control group, and RLUblank was the average value of the cell-free well. The IC50 value was calculated using GraphPad Prism software.

Sequence of PARP-1 enzyme (P09874 whole entry): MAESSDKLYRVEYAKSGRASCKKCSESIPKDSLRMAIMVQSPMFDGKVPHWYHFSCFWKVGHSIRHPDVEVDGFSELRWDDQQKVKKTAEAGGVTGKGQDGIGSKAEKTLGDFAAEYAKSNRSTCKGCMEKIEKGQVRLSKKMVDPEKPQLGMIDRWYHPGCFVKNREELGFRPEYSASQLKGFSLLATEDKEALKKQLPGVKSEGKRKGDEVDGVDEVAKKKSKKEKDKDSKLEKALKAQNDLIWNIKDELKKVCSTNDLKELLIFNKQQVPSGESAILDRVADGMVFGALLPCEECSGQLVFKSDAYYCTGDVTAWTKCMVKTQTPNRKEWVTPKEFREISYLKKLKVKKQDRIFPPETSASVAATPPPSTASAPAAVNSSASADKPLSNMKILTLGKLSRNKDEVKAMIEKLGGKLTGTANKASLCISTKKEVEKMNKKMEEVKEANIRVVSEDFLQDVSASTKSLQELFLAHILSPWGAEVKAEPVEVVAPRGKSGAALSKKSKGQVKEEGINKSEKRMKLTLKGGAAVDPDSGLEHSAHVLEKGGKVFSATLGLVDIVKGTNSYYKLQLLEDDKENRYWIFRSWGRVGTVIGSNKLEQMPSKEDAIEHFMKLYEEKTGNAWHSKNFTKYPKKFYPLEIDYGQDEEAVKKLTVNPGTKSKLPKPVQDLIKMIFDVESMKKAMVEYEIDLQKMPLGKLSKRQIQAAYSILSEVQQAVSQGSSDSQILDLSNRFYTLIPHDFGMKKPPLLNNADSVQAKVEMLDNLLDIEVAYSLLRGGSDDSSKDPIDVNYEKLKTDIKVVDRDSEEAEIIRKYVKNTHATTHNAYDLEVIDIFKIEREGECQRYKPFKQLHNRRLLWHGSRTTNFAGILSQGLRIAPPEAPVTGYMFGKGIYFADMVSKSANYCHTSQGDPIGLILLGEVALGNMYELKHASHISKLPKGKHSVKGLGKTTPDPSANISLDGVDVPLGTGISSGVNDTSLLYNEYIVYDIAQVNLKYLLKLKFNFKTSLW

Structure (SMILES)	pIC50 (PARP-1 enzyme)	pIC50 (MDA-MB-436 cells)	inhibition at 10 µM (MDA-MB-436 cells) [%]
CCc1cc2ncc(CN3CC=C(c4cn5cc(C(F)(F)F)nc5cn4)CC3)cc2[nH]c1=O [Compound 33, 3-ethyl-7-((4-(2-(trifluoromethyl)imidazo[1,2-a]pyrazin-6-yl)-3,6-dihydropyridin-1(2H)-yl)methyl)-1,5-naphthyridin-2(1H)-one]	9.15	8.72	77.6
CCc1cc2ncc(CN3CC=C(c4ccc(NC(=O)C5CC5)nc4)CC3)cc2[nH]c1=O [Compound 22, N-(1′-((7-ethyl-6-oxo-5,6-dihydro-1,5-naphthyridin-3-yl)methyl)-1′,2′,3′,6′-tetrahydro-[3,4′-bipyridin]-6-yl)cyclopropanecarboxamide]	9.51	8.66	89.1
CCc1cc2ncc(CN3CC4CN(c5ccc(C(=O)NC)nc5)CC4C3)cc2[nH]c1=O (stereo not drawn) [Compound 1, 5-(5-((7-ethyl-6-oxo-5,6-dihydro-1,5-naphthyridin-3-yl)methyl)hexahydropyrrolo [3,4-c]pyrrol-2(1H)-yl)-N-methylpicolinamide]	9.10		
CCc1cc2ncc(CN3CC4(C3)CN(c3ccc(C(=O)NC)nc3)C4)cc2[nH]c1=O [Compound 8, 5-(6-((7-ethyl-6-oxo-5,6-dihydro-1,5-naphthyridin-3-yl)methyl)-2,6-diazaspiro[3.3]heptan-2-yl)-N-methylpicolinamide]	9.11		
CCc1cc2ncc(CN3CC[C@@H](Nc4ccc(C(=O)NC)nc4)C3)cc2[nH]c1=O [Compound 19, (R)-5-((1-((7-ethyl-6-oxo-5,6-dihydro-1,5-naphthyridin-3-yl)methyl)pyrrolidin-3-yl)amino)-N-methylpicolinamide]	9.44		
CCc1cc2ncc(CN3CC=C(c4ccc(C(=O)N[C@@H]5C[C@@H]5F)nc4)CC3)cc2[nH]c1=O [Compound 26, 1′-((7-ethyl-6-oxo-5,6-dihydro-1,5-naphthyridin-3-yl)methyl)-N-((1R,2S)-2-fluorocyclopropyl)-1′,2′,3′,6′-tetrahydro-[3,4′-bipyridine]-6-carboxamide]	9.39	9.00	90.9
CCc1cc2ncc(CN3CC(Nc4ccc(C(=O)NC)nc4)C3)cc2[nH]c1=O [Compound 6, 5-((1-((7-ethyl-6-oxo-5,6-dihydro-1,5-naphthyridin-3-yl)methyl)azetidin-3-yl)amino)-N-methylpicolinamide]	9.29		
CCc1cc2ncc(CN3C4CCC3CN(c3ccc(C(=O)NC)nc3)C4)cc2[nH]c1=O [Compound 3, 5-(8-((7-ethyl-6-oxo-5,6-dihydro-1,5-naphthyridin-3-yl)methyl)-3,8-diazabicyclo[3.2.1]octan-3-yl)-N-methylpicolinamide]	8.80		
CCc1cc2ncc(CN3CC=C(c4ccc(C(=O)NC5CC5)nc4)CC3)cc2[nH]c1=O [Compound 25, N-cyclopropyl-1′-((7-ethyl-6-oxo-5,6-dihydro-1,5-naphthyridin-3-yl)methyl)-1′,2′,3′,6′-tetrahydro-[3,4′-bipyridine]-6-carboxamide]	9.44		
CCc1cc2ncc(CN3CC=C(c4cn5cc(C)nc5cn4)CC3)cc2[nH]c1=O [Compound 27, 3-ethyl-7-((4-(2-methylimidazo[1,2-a]pyrazin-6-yl)-3,6-dihydropyridin-1(2H)-yl)methyl)-1,5-naphthyridin-2(1H)-one]	9.39		

The next lines start with results.

pIC50 (PARP-1 enzyme)	Structure (SMILES)	pIC50 (MDA-MB-436 cells)	inhibition at 10 µM (MDA-MB-436 cells) [%]
9.59	CCc1cc2ncc(CN3CC=C(c4ccc(C(=O)Nc5cnn(C)c5)nc4)CC3)cc2[nH]c1=O [Compound 20, 1′-((7-ethyl-6-oxo-5,6-dihydro-1,5-naphthyridin-3-yl)methyl)-N-(1-methyl-1H-pyrazol-4-yl)-1′,2′,3′,6′-tetrahydro-[3,4′-bipyridine]-6-carboxamide]	9.15	91.8
9.02	CCc1cc2ncc(CC3CCN(c4ccc(C(=O)NC)nc4)CC3)cc2[nH]c1=O [Compound 29, 5-(4-((7-ethyl-6-oxo-5,6-dihydro-1,5-naphthyridin-3-yl)methyl)piperidin-1-yl)-N-methylpicolinamide]		
9.59	CCc1cc2ncc(CN3CC=C(c4ccc(NC(=O)c5cnn(C)c5)nc4)CC3)cc2[nH]c1=O [Compound 30, N-(1′-((7-ethyl-6-oxo-5,6-dihydro-1,5-naphthyridin-3-yl)methyl)-1′,2′,3′,6′-tetrahydro-[3,4′-bipyridin]-6-yl)-1-methyl-1H-pyrazole-4-carboxamide]	9.15	91.8
9.48	CCc1cc2ncc(C=C3CCN(c4ccc(C(=O)NC)nc4)CC3)cc2[nH]c1=O [Compound 28, 5-(4-((7-ethyl-6-oxo-5,6-dihydro-1,5-naphthyridin-3-yl)methylene)piperidin-1-yl)-N-methylpicolinamide]		
9.72	CCc1cc2ncc(C=C3CCN(c4ccc(C(=O)Nc5cnn(C)c5)nc4)CC3)cc2[nH]c1=O [Compound 32, 5-(4-((7-ethyl-6-oxo-5,6-dihydro-1,5-naphthyridin-3-yl)methylene)piperidin-1-yl)-N-(1-methyl-1H-pyrazol-4-yl)picolinamide]	7.86	99.1
